Laboratory results published in patent US7799343B2, “Safer control of broadleaf weeds in turf with granular formulations of ALS inhibiting herbicides” (priority 2006, dated 2010).

Assays:
Format in all cases: in vivo
[1] = tested on: tall fescue; assay: Turf tolerance field study, tall fescue, Indiana 2004; conditions: 14 Days After Treatment, g ai/Ha: penoxsulam 35, imazaquin 104, bispyribac-sodium 75, trifloxysulfuron-sodium 9.2, metsulfuron-methyl 10.4; for Color: 0 = brown to dead turf, 10 = lush green; for Injury: 0 = no visible injury, 10 = dead turf
Method: (§1) Turf tolerance studies were conducted in monoculture stands of perennial ryegrass and tall fescue. Replicated trials, containing a minimum of three replications and having individual plots ranging in size from 25 to 50 ft. sq (2.3 to 4.6 square meters), were initiated in the late spring when turf was actively growing. […] Natural rainfall and supplemental irrigation, fertilizer, fungicides and insecticides were used to maintain healthy turf throughout the study period. Turf tolerance evaluations were made weekly for 8 weeks after application. Evaluations compared treated and untreated plot areas and consisted of one or all of the following evaluations: 1) visual estimate of turf injury made on a 0 to 10 scale with 0 indicating no visible injury symptoms, 10 being dead turf and 3 or less being commercially acceptable; 2) visual estimate of turf color made on a 0 to 10 scale with 0 being brown to dead turf, 10 being a lush green turf of highest quality and 6.5 being commercially acceptable; 3) visual estimate of turf density made on a 0 to 100 scale with 0 being bare ground, 100 being a thick solid stand of highest quality and 90 percent density being commercially acceptable; 4) visual estimate of turf quality made on a 0 to 10 scale with 0 being brown to dead turf, 10 being a lush green turf of highest quality and 6.5 being commercially acceptable.

[2] = tested on: perennial ryegrass; assay: Turf tolerance field study, perennial ryegrass, Indiana 2004; conditions: 21 Days After Treatment, g ai/Ha: penoxsulam 35, imazaquin 104, bispyribac-sodium 75, trifloxysulfuron-sodium 9.2, metsulfuron-methyl 10.4; for Color: 0 = brown to dead turf, 10 = lush green; for Injury: 0 = no visible injury, 10 = dead turf
Method: as §1

[3] = tested on: perennial ryegrass; assay: Perennial ryegrass turf quality field study, Pennsylvania 2004; conditions: in vivo
Method: as §1

[4] = tested on: dandelion, Taraxacum officinale (TAROF); assay: Postemergent weed control field study, Pennsylvania 2004, TAROF; conditions: Granule formulation, g ai/Ha: penoxsulam 35, imazaquin 104, bispyribac-sodium 75, trifloxysulfuron-sodium 9.2, metsulfuron-methyl 10.4; for Percent Weed Control TAROF 29DAA: 29 Days After Application; for Percent Weed Control TAROF 56DAA: 56 Days After Application
Excerpt: (§2) The ALS inhibiting herbicides are useful in controlling broadleaf weeds and sedges in turfgrass. They are particularly effective against most important weeds in this application, viz., white clover, Trifolium repens L. (TRFRE); buckhorn plantain, Plantago lanceolata L. (PLALA); dandelion, Taraxacum officinale (TAROF); broadleaf plantain, Plantago major L. (PLAMA); ground ivy, Glechoma hederacea L. (GLEHE); common lespedeza, Lespedeza striata (LESST); pennywort (dollarweed), Hydrocotyle spp (HYDSS); Virginia buttonweed, Diodia virginiana L. (DIQVI) English daisy, Bellis perennis L. (BELPE); annual bluegrass, Poa annua (POANN); and yellow nutsedge, Cypres esculentus L. (CYPES).
(§3) Field studies were conducted in established turfgrass sites containing a natural population of target broadleaf weeds. Replicated trials, containing a minimum of three replications and having individual plots ranging in size from 25 to 50 ft. sq (2.3 to 4.6 square meters), were initiated in the late spring when turf and weeds were actively growing. Granule treatments were uniformly applied to individual plots using a common hand-shaker method. Applications were made in the early morning when dew was present. Natural rainfall and supplemental irrigation were used to maintain healthy turf and active weed growth throughout the study period. Control of each weed species in the study site was made at approximately 2, 4 and 8 weeks after treatment. Control was determined visually by comparing treated and untreated weeds and scored on a 0 to 100 percent scale where 0 corresponds to no control and 100 corresponds to complete kill.

[5] = tested on: white clover, Trifolium repens L. (TRFRE); assay: Postemergent weed control field study, Pennsylvania 2004, TRFRE; conditions: g ai/Ha: penoxsulam 35, imazaquin 104, bispyribac-sodium 75, trifloxysulfuron-sodium 9.2, metsulfuron-methyl 10.4; for Percent Weed Control TRFRE 29DAA: 29 Days After Application; for Percent Weed Control TRFRE 56DAA: 56 Days After Application
Excerpt: as §2
as §3, with “Granule treatments were uniformly applied to individual plots using a common hand-shaker method.” left out

[6] = tested on: buckhorn plantain, Plantago lanceolata L. (PLALA); assay: Postemergent weed control field study, Pennsylvania 2004, PLALA; conditions: g ai/Ha: penoxsulam 35, imazaquin 104, bispyribac-sodium 75, trifloxysulfuron-sodium 9.2, metsulfuron-methyl 10.4; for Percent Weed Control PLALA 29DAA: 29 Days After Application; for Percent Weed Control PLALA 56DAA: 56 Days After Application
Excerpt: as §2
as §3, with “Granule treatments were uniformly applied to individual plots using a common hand-shaker method.” left out

[7] = tested on: annual bluegrass, Poa annua (POANN); assay: Postemergent weed control field study, Pennsylvania 2004, POANN; conditions: g ai/Ha: penoxsulam 35, imazaquin 104, bispyribac-sodium 75, trifloxysulfuron-sodium 9.2, metsulfuron-methyl 10.4; for Percent Weed Control POANN 29DAA: 29 Days After Application; for Percent Weed Control POANN 56DAA: 56 Days After Application
Excerpt: as §2, §3

[8] = tested on: dandelion, Taraxacum officinale (TAROF); assay: Postemergent weed control field study, Pennsylvania 2004, TAROF; conditions: Liquid formulation, g ai/Ha: penoxsulam 35, imazaquin 104, bispyribac-sodium 75, trifloxysulfuron-sodium 9.2, metsulfuron-methyl 10.4; for Percent Weed Control TAROF 29DAA: 29 Days After Application; for Percent Weed Control TAROF 56DAA: 56 Days After Application

Row | SMILES | Color ([1]; Granule formulation) | Injury ([1]; Granule formulation) | Color ([1]; Liquid formulation) | Injury ([1]; Liquid formulation) | Color ([2]; Granule formulation) | Injury ([2]; Granule formulation) | Color ([2]; Liquid formulation) | Injury ([2]; Liquid formulation) | Turf Quality 36 DAA [3] | Percent Weed Control TAROF 29DAA [4] | Percent Weed Control TAROF 56DAA [4] | Percent Weed Control TRFRE 29DAA ([5]; Granule formulation) | Percent Weed Control TRFRE 56DAA ([5]; Granule formulation) | Percent Weed Control TRFRE 29DAA ([5]; Liquid formulation) | Percent Weed Control TRFRE 56DAA ([5]; Liquid formulation) | Percent Weed Control PLALA 29DAA ([6]; Granule formulation) | Percent Weed Control PLALA 56DAA ([6]; Granule formulation) | Percent Weed Control PLALA 29DAA ([6]; Liquid formulation) | Percent Weed Control PLALA 56DAA ([6]; Liquid formulation) | Percent Weed Control POANN 29DAA ([7]; Granule formulation) | also measured
1 | COc1cnc(OC)n2nc(NS(=O)(=O)c3c(OCC(F)F)cccc3C(F)(F)F)nc12 [Penoxsulam, penoxsulam] | 9.0 0-10 Scale | 0.3 0-10 Scale | 7.8 0-10 Scale | 3.0 0-10 Scale | 8.3 0-10 Scale | 1.5 0-10 Scale | 6.5 0-10 Scale | 4.3 0-10 Scale | 10.0 0 to 10 scale | 57.8% | 34.4% | 98.3% | 83.9% | 100.0% | 98.7% | 73.3% | 43.3% | 41.7% | 70.6% | 0.0% | Percent Weed Control POANN 56DAA ([7]; Granule formulation): 13.7%; Percent Weed Control POANN 29DAA ([7]; Liquid formulation): 4.4%; Percent Weed Control POANN 56DAA ([7]; Liquid formulation): 31.1%; Percent Weed Control TAROF 29DAA [8]: 44.4%; Percent Weed Control TAROF 56DAA [8]: 11.1%
2 | COC(=O)c1ccccc1S(=O)(=O)NC(=O)Nc1nc(C)nc(OC)n1 [Metsulfuron-methyl, metsulfuron-methyl] | 8.8 0-10 Scale | 0.8 0-10 Scale | 6.8 0-10 Scale | 4.3 0-10 Scale | 6.5 0-10 Scale | 4.5 0-10 Scale | 6.0 0-10 Scale | 6.0 0-10 Scale | 8.3 0 to 10 scale | 87.2% | 67.2% | 93.9% | 93.9% | 95.8% | 100.0% | 58.3% | 85.0% | 97.7% | 78.9% | 32.2% | Percent Weed Control POANN 56DAA ([7]; Granule formulation): 31.1%; Percent Weed Control POANN 29DAA ([7]; Liquid formulation): 39.2%; Percent Weed Control POANN 56DAA ([7]; Liquid formulation): 17.5%; Percent Weed Control TAROF 29DAA [8]: 99.1%; Percent Weed Control TAROF 56DAA [8]: 97.4%
